Row | melting point | Compound
1 | 220 to 222 °C | COc1cc2ncnc(N3CCN(C(=O)Nc4ccc(OC(C)C)cc4)CC3)c2cc1OC [Compound 202, 4-(6,7-Dimethoxy-4-quinazolinyl)-N-(4-isopropoxyphenyl)-1-piperazinecarboxamide]
2 | 131 to 132 °C | COc1cc2ncnc(N3CCN(C(=S)NCc4ccc(OC(F)(F)F)cc4)CC3)c2cc1OC [Compound 204, 4-(6,7-Dimethoxy-4-quinazolinyl)-N-(4-trifluoromethoxybenzyl)-1-piperazinethiocarboxamide]
3 | 165 to 166 °C | COc1cc2ncnc(N3CCN(C(=S)Nc4ccc5c(c4)OCCO5)CC3)c2cc1OC [Compound 209, 4-(6,7-Dimethoxy-4-quinazolinyl)-N-(3,4-ethylenedioxyphenyl)-1-piperazinethiocarboxamide]
4 | 214 to 216 °C | COc1cc2ncnc(N3CCN(C(=S)Nc4ccc(SC)cc4)CC3)c2cc1OC [Compound 218, 4-(6,7-Dimethoxy-4-quinazolinyl)-N-(4-methylthiophenyl)-1-piperazinethiocarboxamide]
5 | 208 to 209 °C | CCSc1ccc(NC(=O)N2CCN(c3ncnc4cc(OC)c(OC)cc34)CC2)cc1 [Compound 219, 4-(6,7-Dimethoxy-4-quinazolinyl)-N-(4-ethylthiophenyl)-1-piperazinecarboxamide]
6 | 188 to 190 °C | COc1cc2ncnc(N3CCN(C(=O)NCc4ccc(N(C)C)cc4)CC3)c2cc1OC [Compound 223, 4-(6,7-Dimethoxy-4-quinazolinyl)-N-(4-dimethylaminobenzyl)-1-piperazinecarboxamide]
7 | 177 to 178 °C | COc1cc2ncnc(N3CCN(C(=S)NCc4ccc(N(C)C)cc4)CC3)c2cc1OC [Compound 224, 4-(6,7-Dimethoxy-4-quinazolinyl)-N-(4-dimethylaminobenzyl)-1-piperazinethiocarboxamide]

Further lines, the molecule ahead of its results:

Row | Compound | melting point
8 | COc1ccc(CNC(=S)N2CCN(c3ncnc4cc(OC)c(OC)cc34)CC2)cc1OC [Compound 205, N-(3,4-Dimethoxybenzyl)-4-(6,7-dimethoxy-4-quinazolinyl)-1-piperazinethiocarboxamide] | 196 to 197 °C
9 | COc1ccc(CCNC(=S)N2CCN(c3ncnc4cc(OC)c(OC)cc34)CC2)cc1OC [Compound 206, N-[2-(3,4-Dimethoxyphenyl)ethyl]-4-(6,7-dimethoxy-4-quinazolinyl)-1-piperazinethiocarboxamide] | 98 to 100 °C
10 | COc1cc2ncnc(N3CCN(C(=O)Nc4cc(OC)c(OC)c(OC)c4)CC3)c2cc1OC [Compound 212, 4-(6,7-Dimethoxy-4-quinazolinyl)-N-(3,4,5-trimethoxyphenyl)-1-piperazinecarboxamide] | 198 to 199 °C
11 | COc1cc2ncnc(N3CCN(C(=O)Nc4ccc(OC(C)=O)cc4)CC3)c2cc1OC [Compound 216, N-(4-Acetoxyphenyl)-4-(6,7-dimethoxy-4-quinazolinyl)-1-piperazinecarboxamide] | 197 to 199 °C
12 | COc1cc2ncnc(N3CCN(C(=O)Nc4cccc(SC)c4)CC3)c2cc1OC [Compound 217, 4-(6,7-Dimethoxy-4-quinazolinyl)-N-(3-methylthiophenyl)-1-piperazinecarboxamide] | 180 to 181 °C
13 | COc1cc2ncnc(N3CCN(C(=S)Nc4ccc(SC(F)(F)F)cc4)CC3)c2cc1OC [Compound 220, 4-(6,7-Dimethoxy-4-quinazolinyl)-N-(4-trifluoromethylthiophenyl)-1-piperazinethiocarboxamide] | 128 to 131 °C
14 | COc1cc2ncnc(N3CCN(C(=O)Nc4ccc(N(C)C)cc4)CC3)c2cc1OC [Compound 222, 4-(6,7-Dimethoxy-4-quinazolinyl)-N-(4-dimethylaminophenyl)-1-piperazinecarboxamide] | 252 to 254 °C
15 | CCN(CC)c1ccc(NC(=O)N2CCN(c3ncnc4cc(OC)c(OC)cc34)CC2)cc1 [Compound 225, N-(4-Diethylaminophenyl)-4-(6,7-dimethoxy-4-quinazolinyl)-1-piperazinecarboxamide] | 221 to 223 °C
